The data set in a line: in vitro. The note with it: human, hela cells, % viability.

`COc1ccc(C(C)C)cc1-c1cnc2nc(N)ccc2c1` [CBK081216]: the viability – broadly, a read-out of living cells in per cent, often relative to untreated cells – at 28.5 h, 10 µM came to 97.7%.

With `Cc1cc(NC(=O)c2ccc(Cl)c([N+](=O)[O-])c2)nc2c1c(=O)oc1ccccc12` [CBK291263], the viability at 28.5 h, 10 µM was 96.7%.

As for `COc1ccc(C(=O)C2=C(O)C(=O)N(Cc3cccnc3)C2c2ccc(N(C)C)cc2)cc1` (stereo not drawn) [CBK264635], the viability at 28.5 h, 10 µM was 85.9%.

Consider `Cc1ccc(S(=O)(=O)NCCNc2ccc(Cl)cc2[N+](=O)[O-])cc1` [CBK263784], for which the viability at 28.5 h, 10 µM amounted to 104%.

As to `COCCN(C(=O)CCC(=O)NCCc1ccccc1)C1CCN(C)CC1` [CBK014576], the viability at 28.5 h, 10 µM was 96.9%.

`CC(C)(C)C(=O)NCCCC(=O)Nc1nc2ccc(Oc3ccccc3)cc2s1` [CBK296652]: the viability at 28.5 h, 10 µM was found to be 97.9%.

On to `N#Cc1cccc(C(=O)N2CCCC3(CCN(C(=O)Cc4c[nH]c5ccccc45)C3)C2)c1` (stereo not drawn) [CBK131581], for which the viability at 28.5 h, 10 µM worked out at 93.4%.

With `Cc1ccccc1-n1ccn(C(=O)CCC2CCCC2)c1=O` [CBK106571], the viability at 28.5 h, 10 µM was 106%.

Regarding `COc1ccc(CCCC(=O)NCc2sc(-c3ccccc3)nc2C)cc1OC` [CBK092353], the viability at 28.5 h, 10 µM worked out at 85.2%.

`CCc1nc2cccnc2n1CCNC(=O)Cc1cccs1` [CBK283639]: the viability at 28.5 h, 10 µM stood at 98.9%.

Turning to `CSc1cccc(C(=O)Nc2sc3c(c2C#N)CCN(C(C)=O)C3)c1` [CBK304390], the viability at 28.5 h, 10 µM was found to be 56%.

On to `CC(C)c1ccc(/C=C/C(=O)NCc2ccc(S(N)(=O)=O)cc2)cc1` [CBK161511], for which the viability at 28.5 h, 10 µM is 110%.

With `COc1cc(-c2cncc(NCc3ccco3)n2)cc(OC)c1OC` [CBK065259], the viability at 28.5 h, 10 µM worked out at 99.9%.

Turning to `c1ccc2c(CCN3CCC(Oc4cncc(OCCN5CCOCC5)n4)C3)c[nH]c2c1` (stereo not drawn) [CBK084500], the viability at 28.5 h, 10 µM was determined as 100%.

In the case of `COc1cc(CNC(=O)c2ccc(-c3ccc(NC(C)=O)cc3)nc2)cc(OC)c1OC` [CBK158851], the viability at 28.5 h, 10 µM came to 100%.

As for `COc1ccc(CCNC(=O)N2CCN(C3CCN(C)CC3)CC2)cc1OC` [CBK155897], the viability at 28.5 h, 10 µM is 94.3%.

For the molecule `N#Cc1ccccc1NC(=O)CSc1cnn[nH]1` [CBK269795], the viability at 28.5 h, 10 µM was 89.3%.

In the case of `CC(C)CN1CCN(S(=O)(=O)c2ccc(C(F)(F)F)cc2Cl)CC1` [CBK062740], the viability at 28.5 h, 10 µM came to 113%.

As to `CC(C(=O)N1CCC(c2nn(C)c3ncccc23)CC1)c1ccccc1` (stereo not drawn) [CBK282166], the viability at 28.5 h, 10 µM was found to be 97.4%.

With `COc1ccc(C2(O)CCN(CC(O)c3ccc4c(c3)CCC4)CC2)cc1` (stereo not drawn) [CBK286334], the viability at 28.5 h, 10 µM is 95.9%.

For the molecule `CCOc1cc(Cl)c(S(=O)(=O)NCCCN2CCOCC2)cc1Cl` [CBK268781], the viability at 28.5 h, 10 µM amounted to 87.9%.

Take `O=C(Nc1ccc2cccc(O)c2n1)c1cc[nH]c1` [CBK122743]: the viability at 28.5 h, 10 µM worked out at 94.9%.

For the molecule `CCOc1ccc2nc(NS(=O)(=O)c3cccc(C(=O)O)c3)sc2c1` [CBK161137], the viability at 28.5 h, 10 µM worked out at 102%.

For the molecule `CCc1cc(C(=O)N2CCC(Oc3ccccc3F)CC2)n(C)n1` [CBK282172], the viability at 28.5 h, 10 µM was determined as 109%.

With `O=C(O)Cn1c(=O)[nH]c2c(-c3ccccc3)c[nH]c2c1=O` [CBK287218], the viability at 28.5 h, 10 µM amounted to 87.2%.

In the case of `CSc1nc2ccc3nc(NC(C)=O)sc3c2s1` [CBK287567], the viability at 28.5 h, 10 µM came to 106%.

For the molecule `CC(=O)c1ccc(-c2nccnc2NCC2CC2)s1` [CBK037975], the viability at 28.5 h, 10 µM is 104%.

With `CC(C)(C)c1ccc(S(N)(=O)=O)cc1NC(=O)Nc1cccc(F)c1` [CBK093643], the viability at 28.5 h, 10 µM is 100%.

For the molecule `COc1nc(NCCN2CCOCC2)nc(Nc2ccccc2)n1` [CBK027298], the viability at 28.5 h, 10 µM is 102%.

Regarding `O=C(c1c(F)cccc1F)N1CCCC2(CCN(Cc3ccccc3)C2)C1` (stereo not drawn) [CBK136886], the viability at 28.5 h, 10 µM stood at 108%.

With `O=C(c1cc[nH]c1)N1CCC2(CCN(Cc3ccccc3)CC2)C1` [CBK136756], the viability at 28.5 h, 10 µM turned out to be 86.9%.

Consider `NS(=O)(=O)c1ccc(NC(=S)Nc2nn(Cc3ccc(Cl)cc3Cl)cc2Cl)cc1` [CBK267020], for which the viability at 28.5 h, 10 µM came out at 90.6%.

As to `O=C(Cn1c(NCCCO)nc2ccccc21)c1ccc(Cl)c(Cl)c1` [CBK262905B], the viability at 28.5 h, 10 µM turned out to be 94.1%.

With `COC(=O)C1CCCCN1S(=O)(=O)c1cccc2cccnc12` (stereo not drawn) [CBK051244], the viability at 28.5 h, 10 µM came out at 82.2%.

Regarding `O=C1N=C(NC2CCCCCC2)SC1Cc1ccc(O)cc1` (stereo not drawn) [CBK067868], the viability at 28.5 h, 10 µM is 109%.

Regarding `CCS(=O)(=O)N1CCN(C(=O)c2ccc3nc(C)c(N(CCOC)Cc4ccc(OC)cc4)n3c2)CC1` [CBK146153], the viability at 28.5 h, 10 µM came to 98.2%.

With `COC(=O)N1CCN(C(=O)c2cc(C(C)C)n3ncnc3n2)CC1` [CBK306509], the viability at 28.5 h, 10 µM stood at 85.4%.

For `Cc1cc(C(=O)NCCCN(C)C)ccc1[N+](=O)[O-]` [CBK262467], the viability at 28.5 h, 10 µM turned out to be 90.8%.

Regarding `CC(=O)c1ccc(NC(=O)CSc2nc(O)cc(-c3ccccc3)n2)cc1` [CBK269048], the viability at 28.5 h, 10 µM stood at 96%.

As to `CN1CCC(N2CCN(C(=O)Nc3cccnc3)CC2)CC1` [CBK156111], the viability at 28.5 h, 10 µM is 93.1%.

Turning to `Cc1cccc(CC(=O)N2CCC(c3ncc(C(=O)Nc4ccc(F)cc4)c(C)n3)CC2)c1` [CBK285885], the viability at 28.5 h, 10 µM amounted to 101%.

For `Cc1ccc(S(=O)(=O)NCCSc2ccccn2)cc1[N+](=O)[O-]` [CBK263566], the viability at 28.5 h, 10 µM was found to be 82.5%.

For the molecule `CNC(=O)CSc1nc2ccccc2nc1C(F)(F)F` [CBK107206], the viability at 28.5 h, 10 µM was found to be 95.9%.

As to `COc1ccc2c(c1)C1(CC(=O)N(CC(=O)N(C)C)C1=O)C(=O)N2CC(=O)c1ccccc1` (stereo not drawn) [CBK075913], the viability at 28.5 h, 10 µM stood at 96.9%.

Take `FC(F)(F)c1cccc(CSc2cc(N3CCCC3)ncn2)c1` [CBK107184]: the viability at 28.5 h, 10 µM worked out at 91.1%.

`O=C(O)c1cccnc1SC1CC(=O)N(c2ccc([N+](=O)[O-])cc2)C1=O` (stereo not drawn) [CBK263079]: the viability at 28.5 h, 10 µM came to 100%.

As for `NC(=O)CN1CCN(c2nccnc2Oc2ccc(F)cc2)CC1` [CBK083018T], the viability at 28.5 h, 10 µM turned out to be 98.3%.

As for `COc1cc(-c2cn3ccnc3c(N[C@H](CO)C(C)C)n2)cc(OC)c1OC` [CBK066220], the viability at 28.5 h, 10 µM amounted to 103%.

On to `CN(Cc1ccc(-c2ccc(S(C)(=O)=O)cc2)nc1)C1CCN(C(=O)Cc2cccc(C(F)(F)F)c2)CC1` [CBK164104T], for which the viability at 28.5 h, 10 µM worked out at 90.2%.

Turning to `COc1cccc(CS(=O)(=O)c2c(Br)sc3ccnc(N4CCNCC4)c23)c1` [CBK038956C], the viability at 28.5 h, 10 µM was found to be 95.1%.

In the case of `CCOc1ccccc1NC(=O)Nc1ncccc1C` [CBK267140], the viability at 28.5 h, 10 µM worked out at 85.3%.

Take `CC(=O)c1ccc(NC(=O)CC2SC(=N)NC2=O)cc1` (stereo not drawn) [CBK265625]: the viability at 28.5 h, 10 µM turned out to be 83.9%.

As for `COc1ccc(CCNc2ccc(C(F)(F)F)cc2[N+](=O)[O-])cc1OC` [CBK074656], the viability at 28.5 h, 10 µM is 87.4%.

Turning to `NC(=O)CCN1CCCC2(CCN(C(=O)Cc3c[nH]c4ccccc34)C2)C1` (stereo not drawn) [CBK132041], the viability at 28.5 h, 10 µM was 106%.

As to `CNc1ccc(C(O)(C(F)(F)F)C(F)(F)F)cc1C(O)(C(F)(F)F)C(F)(F)F` [CBK268070], the viability at 28.5 h, 10 µM came out at 96.6%.

As for `CC(C)(C)OC(=O)NC(C)(C)C(=O)N1CC(C(=O)O)C(c2cc3ccccc3o2)C1` (stereo not drawn) [CBK003236], the viability at 28.5 h, 10 µM stood at 88%.

As for `Cc1ccccc1CN1CCCN(C(=O)CCNC(=O)c2ccco2)CC1` [CBK297718], the viability at 28.5 h, 10 µM stood at 103%.

Turning to `NC(=O)[C@@H]1C[C@@H](O)[C@H](O)[C@H]2[C@@H]1N(c1ccccc1)C(=S)N2Cc1ccc(F)cc1` [CBK288928], the viability at 28.5 h, 10 µM worked out at 102%.

As to `Cc1ccc(NC(=O)c2ccc(-c3ccccc3)cc2)c(OC(=O)c2ccc(-c3ccccc3)cc2)c1` [CBK261347], the viability at 28.5 h, 10 µM worked out at 98.9%.

On to `CS(=O)(=O)c1ccc(CN2C(=O)CC3(CCN(C(=O)Cc4cccs4)CC3)C2=O)cc1` [CBK155013], for which the viability at 28.5 h, 10 µM is 100%.

Turning to `CCOC(=O)CCCNC(=O)N1CCN(Cc2ccccc2)CC1` [CBK155664], the viability at 28.5 h, 10 µM came to 89.2%.

Consider `Cc1c(S(=O)(=O)Nc2ccc(C(=O)c3ccccc3)cc2)cnn1-c1ccccc1` [CBK051034], for which the viability at 28.5 h, 10 µM turned out to be 96.5%.

Regarding `CC(=O)Oc1ccc(-c2cccc(C(=O)NCC(=O)O)c2)cc1` [CBK263828], the viability at 28.5 h, 10 µM turned out to be 86.9%.

Consider `O=C(Nc1ccc(-c2nc(-c3ccccc3)c3cc(NC(=O)c4cccs4)ccc3n2)cc1)c1cccs1` [CBK261547], for which the viability at 28.5 h, 10 µM was 86%.

With `Cc1ccc(C(=O)NCc2ccco2)c(NCc2cccnc2)n1` [CBK076383], the viability at 28.5 h, 10 µM stood at 102%.

Regarding `Cc1cc2cc3c(nc2cc1C)OCCNC3` [CBK281939], the viability at 28.5 h, 10 µM stood at 97.1%.

On to `Nc1ccc(-c2nnn(CC(=O)NC3CCCCC3)n2)cc1` [CBK135771], for which the viability at 28.5 h, 10 µM worked out at 86.7%.

In the case of `COc1ccc(N2CC(NC(=O)Nc3ccccn3)CC2=O)cc1` (stereo not drawn) [CBK287642], the viability at 28.5 h, 10 µM worked out at 96.9%.

Regarding `CC(=O)C12CCCCC1CC1C3CC(C)C4(O)CC(O)CCC4(C)C3CCC12C` (stereo not drawn) [CBK261479], the viability at 28.5 h, 10 µM came to 91.8%.

As to `COc1ccc(-c2cnc(NCCOc3ccccc3)c(C(=O)NCC3COc4ccccc4O3)c2)cc1` (stereo not drawn) [CBK076332], the viability at 28.5 h, 10 µM was 97.2%.

For `Cc1cc(COc2nccnc2N2CCN(CCCO)CC2)no1` [CBK084197], the viability at 28.5 h, 10 µM was determined as 89.6%.

On to `CCN1C(=O)CC2(C1=O)C(=O)N(CCCOc1ccccc1OC)c1ccccc12` (stereo not drawn) [CBK075498], for which the viability at 28.5 h, 10 µM turned out to be 109%.

In the case of `Cc1ccn(-c2ccc(N3CCC4(CC3)OCCO4)nn2)n1` [CBK305263], the viability at 28.5 h, 10 µM turned out to be 91.5%.

Take `O=C(c1cc[nH]n1)N1CCCCC1c1ncc(-c2cccc(F)c2)[nH]1` (stereo not drawn) [CBK291217]: the viability at 28.5 h, 10 µM is 94.6%.

Turning to `NC(=O)CNC(=O)C1CCCN(c2nc3c(-c4ccccc4)csc3c(=O)[nH]2)C1` (stereo not drawn) [CBK215487], the viability at 28.5 h, 10 µM came to 112%.

`NC(=O)CN1CCC(Cc2ccccc2)CC1` [CBK138319]: the viability at 28.5 h, 10 µM was 109%.

Regarding `Nn1c(SCc2ccc(C(=O)O)cc2)nnc1-c1ccccn1` [CBK267553], the viability at 28.5 h, 10 µM turned out to be 90.8%.

Turning to `O=C(Nc1cnccn1)c1ccc(Cl)cc1Cl` [CBK056922], the viability at 28.5 h, 10 µM worked out at 85.5%.
